Source: ChEMBL document CHEMBL1201862, “PubChem BioAssay data set” (2004)
Calls of active or inactive are those of the source. Cut-off read from the data, not from the text of the source, for most assays here: actives have a measured EC50 and inactives only a lower limit.

Tests used:
[1] = test system: Streptococcus sp. 'group A'; experiment: Streptococcus pyogenes SK(-)GAS viability under kanamycin – luminescence, BacTiterGlo, confirmation, counter-screen for streptokinase expression inhibitor project, dose response (AID 1900); format: functional, organism-based
[2] = target: ATP-dependent molecular chaperone HSP82 (Candida albicans (strain WO-1) (Yeast), UniProt C4YTQ8); experiment: steroid-induced GRE reporter decrease in yeast – S. cerevisiae, luminescence, Hsp90 inhibitor project, dose response (AID 2400); format: functional, cell-based;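 note: beta-galactosidase luminescence from glucocorticoid response element reporter as proxy for Hsp90 function; inhibitor potency where signal loss means Hsp90 inhibition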
[3] = NIH3T3 cell viability loss – ATP luminescence, mouse fibroblasts, counter-screen, dose response (AID 2010); format: functional, cell-based;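 note: cells exposed to compound for about 90 hours before reading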
[4] = NIH-3T3 fibroblast cytotoxicity, dose response, cytotoxicity control, cell-based, fluorescence, Alamar Blue, secondary assay (AID 2327); format: functional;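 note: NIH-3T3 mouse fibroblasts cultured with fluconazole at 8 µg/mL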
[5] = loss of viability in HepG2 cells – cell-based, CellTiter-Glo, cherry-picked, cytotoxicity control for Shn3 inhibitor project, dose response (AID 624134); format: functional
[6] = target: T1, Hexokinase HKDC1 (Homo sapiens, UniProt Q2TB90); experiment: activation of HKDC1 glucose phosphorylation – biochemical, W721R variant, dose response (AID 504730); format: functional
T1 sequence (Q2TB90 whole entry): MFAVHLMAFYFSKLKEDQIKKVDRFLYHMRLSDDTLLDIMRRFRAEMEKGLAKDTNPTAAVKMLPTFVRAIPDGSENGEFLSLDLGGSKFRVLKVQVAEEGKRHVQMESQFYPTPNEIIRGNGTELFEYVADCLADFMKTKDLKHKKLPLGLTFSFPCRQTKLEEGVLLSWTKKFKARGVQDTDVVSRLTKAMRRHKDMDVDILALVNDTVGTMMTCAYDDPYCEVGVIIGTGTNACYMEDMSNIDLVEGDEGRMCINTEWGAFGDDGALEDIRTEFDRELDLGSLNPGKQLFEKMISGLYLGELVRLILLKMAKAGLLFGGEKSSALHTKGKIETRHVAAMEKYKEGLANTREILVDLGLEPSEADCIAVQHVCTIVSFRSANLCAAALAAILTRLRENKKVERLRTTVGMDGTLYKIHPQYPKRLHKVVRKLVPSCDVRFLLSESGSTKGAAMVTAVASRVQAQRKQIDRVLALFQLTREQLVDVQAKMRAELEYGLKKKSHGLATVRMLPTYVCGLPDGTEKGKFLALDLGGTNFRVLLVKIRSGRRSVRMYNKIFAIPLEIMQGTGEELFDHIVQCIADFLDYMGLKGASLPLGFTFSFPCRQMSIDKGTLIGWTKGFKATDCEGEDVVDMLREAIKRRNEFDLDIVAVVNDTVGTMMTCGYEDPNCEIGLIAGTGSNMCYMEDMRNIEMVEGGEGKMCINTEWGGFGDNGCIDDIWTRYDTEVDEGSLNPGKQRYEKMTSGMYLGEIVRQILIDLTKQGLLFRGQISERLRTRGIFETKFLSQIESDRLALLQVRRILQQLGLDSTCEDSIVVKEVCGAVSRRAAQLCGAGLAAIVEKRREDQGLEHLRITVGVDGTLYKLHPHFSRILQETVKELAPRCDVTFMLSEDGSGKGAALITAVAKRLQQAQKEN

[7] = test system: INS1; experiment: INS-1E survival protection against cytokine death – cell-based, luminescence, retest, dose response (AID 449756); format: functional; conditions: Rattus norvegicus;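 note: cell death triggered by IL-1 beta plus TNF-alpha plus IFN-gamma mixture; protective hits raise ATP signal compared with cytokine alone wells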
[8] = reduction of Shn3 3'UTR-driven luciferase in osteoblasts – cell-based, Clone20 osteoblasts, firefly luciferase, cherry-picked, dose response (AID 624132); format: functional;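 note: firefly luciferase luminescence from reporter carrying the Shn3 3'UTR in osteoblasts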
[9] = target: Nonstructural protein 1 (Influenza A virus, UniProt Q194T2); format: functional, Influenza A virus (A/California/07/2009(H1N1))
[10] = non-specific 3'UTR reporter inhibition in Clone20-Shn3RL – cell-based, Renilla luciferase, cherry-picked, counter-screen for Shn3 inhibitor project, dose response (AID 624133); format: functional
[11] = test system: Streptococcus; experiment: GAS UMAA2166 growth inhibition – luminescence, BacTiterGlo, counter-screen for streptokinase expression inhibitor project, dose response (AID 1915); format: functional, organism-based;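 note: potency for reduction of bacterial viability or growth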
[12] = target: T2, Serine/threonine-protein phosphatase (Candida dubliniensis (strain CD36 / CBS 7987 / NCPF 3949 / NRRLY-17841) (Yeast), UniProt B9W6M3); experiment: blockers of CaCl2-induced CDRE-lacZ signaling – S. cerevisiae, luminescence, secondary, dose response (AID 2388); format: functional, cell-based;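 note: yeast reporter cells carrying a calcineurin-responsive lacZ construct stimulated with calcium chloride; luminescent beta-galactosidase reporter signal in whole cells rather than isolated phosphatase activity; potency for inhibition where a drop in reporter signal means calcineurin blockade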
T2 sequence (B9W6M3 whole entry): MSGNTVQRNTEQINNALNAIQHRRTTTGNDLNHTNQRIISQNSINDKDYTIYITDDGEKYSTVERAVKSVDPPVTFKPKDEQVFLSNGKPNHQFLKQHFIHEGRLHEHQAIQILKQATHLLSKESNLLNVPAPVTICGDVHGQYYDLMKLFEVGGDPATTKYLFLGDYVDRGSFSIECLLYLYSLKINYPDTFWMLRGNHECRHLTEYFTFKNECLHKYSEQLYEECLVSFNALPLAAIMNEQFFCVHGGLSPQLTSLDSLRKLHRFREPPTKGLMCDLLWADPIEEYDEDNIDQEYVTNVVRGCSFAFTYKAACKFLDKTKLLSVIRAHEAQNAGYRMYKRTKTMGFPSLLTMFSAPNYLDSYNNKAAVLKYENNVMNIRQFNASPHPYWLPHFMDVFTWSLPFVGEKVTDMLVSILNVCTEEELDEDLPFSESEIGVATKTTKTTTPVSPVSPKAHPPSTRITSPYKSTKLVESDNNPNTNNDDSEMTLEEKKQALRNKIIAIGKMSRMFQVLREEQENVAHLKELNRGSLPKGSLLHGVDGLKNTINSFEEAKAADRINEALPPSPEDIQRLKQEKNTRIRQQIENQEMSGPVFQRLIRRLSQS

[13] = test system: HEK293; experiment: EBV LMP1 TES2 canonical NF-kB signalling blockers – cell-based, HEK293, luciferase, cherry-pick, dose response (AID 588343); format: functional; conditions: Homo sapiens
[14] = cells; format: functional, cell-based
[15] = cells; format: functional, cell-based; remark: listed apart in the source
[16] = mammalian cell viability loss – Alamar Blue, dry powder, cytotoxicity control for antifungal single agent project, dose response (AID 602188); format: functional, cell-based
[17] = fluconazole-exposed Candida albicans growth modulators – fluorescence, retest, confirmation (AID 2467); format: functional, cell-based
[18] = Trypanosoma cruzi growth suppression in host cells – NIH3T3 host cells, beta-gal luminescence, confirmation (AID 2044); format: functional, cell-based;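 note: intracellular parasites grown in NIH/3T3 mouse fibroblasts as host cells; luminescent beta-galactosidase reporter signal from transgenic T. cruzi replicating inside host cells; inhibitors lower the luminescence signal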
[19] = target: T3, Hexokinase-1 (Homo sapiens, UniProt P19367); experiment: HK1 enzyme activation by HKDC1 hits – biochemical, selectivity assay for HKDC1 activator project, dose response (AID 504762); format: functional
T3 sequence (P19367 whole entry): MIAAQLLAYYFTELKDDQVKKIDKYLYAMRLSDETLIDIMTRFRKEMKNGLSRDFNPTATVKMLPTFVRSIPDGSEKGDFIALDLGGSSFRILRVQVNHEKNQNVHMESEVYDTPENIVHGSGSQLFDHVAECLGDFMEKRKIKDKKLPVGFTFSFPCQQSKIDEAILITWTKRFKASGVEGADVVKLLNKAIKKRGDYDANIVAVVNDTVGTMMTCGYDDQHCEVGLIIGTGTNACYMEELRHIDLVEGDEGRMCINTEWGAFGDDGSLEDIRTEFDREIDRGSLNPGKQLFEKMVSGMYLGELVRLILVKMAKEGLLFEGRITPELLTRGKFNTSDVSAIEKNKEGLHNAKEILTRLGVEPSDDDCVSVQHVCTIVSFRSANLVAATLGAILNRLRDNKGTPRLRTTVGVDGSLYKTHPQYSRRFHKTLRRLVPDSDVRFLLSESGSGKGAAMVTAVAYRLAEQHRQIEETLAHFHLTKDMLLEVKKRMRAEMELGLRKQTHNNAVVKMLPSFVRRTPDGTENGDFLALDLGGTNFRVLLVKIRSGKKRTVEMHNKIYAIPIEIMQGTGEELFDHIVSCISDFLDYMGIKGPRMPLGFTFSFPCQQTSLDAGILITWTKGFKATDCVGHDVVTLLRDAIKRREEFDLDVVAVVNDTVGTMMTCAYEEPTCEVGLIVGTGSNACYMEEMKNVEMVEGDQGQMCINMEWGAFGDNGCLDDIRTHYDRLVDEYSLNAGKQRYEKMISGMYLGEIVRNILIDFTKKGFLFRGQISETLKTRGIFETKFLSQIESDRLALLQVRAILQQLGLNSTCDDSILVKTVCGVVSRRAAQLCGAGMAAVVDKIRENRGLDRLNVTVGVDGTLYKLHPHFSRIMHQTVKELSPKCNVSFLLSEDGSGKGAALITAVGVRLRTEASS

Sequence of ATP-dependent molecular chaperone HSP82 (C4YTQ8 whole entry): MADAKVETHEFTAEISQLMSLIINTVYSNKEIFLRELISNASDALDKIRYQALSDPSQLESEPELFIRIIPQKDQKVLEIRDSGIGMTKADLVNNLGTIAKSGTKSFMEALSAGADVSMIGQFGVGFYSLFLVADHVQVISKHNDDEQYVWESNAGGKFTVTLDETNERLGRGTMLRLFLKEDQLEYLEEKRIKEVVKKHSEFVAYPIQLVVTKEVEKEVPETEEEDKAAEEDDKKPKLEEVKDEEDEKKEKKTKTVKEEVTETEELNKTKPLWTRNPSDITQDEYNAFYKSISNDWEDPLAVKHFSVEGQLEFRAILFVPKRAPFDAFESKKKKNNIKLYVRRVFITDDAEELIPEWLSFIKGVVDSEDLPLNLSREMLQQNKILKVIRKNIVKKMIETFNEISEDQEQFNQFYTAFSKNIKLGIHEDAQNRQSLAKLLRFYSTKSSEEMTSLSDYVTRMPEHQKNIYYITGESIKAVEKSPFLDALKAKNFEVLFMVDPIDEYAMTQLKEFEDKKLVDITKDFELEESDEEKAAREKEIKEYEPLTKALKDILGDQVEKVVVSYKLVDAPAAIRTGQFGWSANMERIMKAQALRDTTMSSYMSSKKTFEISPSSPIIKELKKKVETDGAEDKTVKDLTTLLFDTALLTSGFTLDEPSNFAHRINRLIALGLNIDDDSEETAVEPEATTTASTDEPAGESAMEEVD
Sequence of Nonstructural protein 1 (Q194T2 whole entry): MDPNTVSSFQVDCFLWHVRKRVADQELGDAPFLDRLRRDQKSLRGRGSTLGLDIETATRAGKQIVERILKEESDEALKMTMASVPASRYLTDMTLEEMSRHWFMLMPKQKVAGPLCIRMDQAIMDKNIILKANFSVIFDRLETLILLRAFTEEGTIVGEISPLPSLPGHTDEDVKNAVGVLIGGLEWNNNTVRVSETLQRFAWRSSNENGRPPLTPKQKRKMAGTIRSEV

O=C(NNC(=S)Nc1ccc(Cl)c(Cl)c1)c1ccccn1
> 350 µM (not active): EC50 [15]
inconclusive: EC50 [4] 42 µM
active: EC50 [1] 2.3 µM | EC50 [3] 5.02 µM | AC50 [5] 3.72 µM | EC50 [6] 2.2 µM | AC50 [7] 1.06 µM | AC50 [8] 2.33 µM | IC50 [9] 5.57 µM | AC50 [10] 2.44 µM | EC50 [11] 3.32 µM | AC50 [13] 6.08 µM | EC50 [14] 10.5 µM | AC50 [16] 2.98 µM | EC50 [17] 0.853 µM | EC50 [18] 1.53 µM
inactive: EC50 [2] > 150 µM | EC50 [12] > 180 µM | EC50 [19] > 80 µM
